Where “and” joins values, the source holds several entries; their conditions need not be identical. Equal values may be shown once.
Columns and labels:
[1] = Dynamic PET blood clearance in naïve CBA/Carl mice; assay type: in vivo; settings: i.v. 3 MBq
CaNT allograft = assay: Ex vivo biodistribution in CaNT allograft bearing CBA/Carl mice; settings: for Ex vivo biodistribution Blood / Ex vivo biodistribution Bone / Ex vivo biodistribution Brain / Ex vivo biodistribution Caecum / Ex vivo biodistribution Fat / Ex vivo biodistribution Gallbladder / Ex vivo biodistribution Heart / Ex vivo biodistribution Kidney / Ex vivo biodistribution Large intestine / Ex vivo biodistribution Liver / Ex vivo biodistribution Lung / Ex vivo biodistribution Muscle / Ex vivo biodistribution Pancreas / Ex vivo biodistribution Skin / Ex vivo biodistribution Spleen / Ex vivo biodistribution Stomach / Ex vivo biodistribution Tumour: CaNT allograft mice, 1 h p.i.; for tumour uptake (group mean): CaNT tumours
Description: All animal procedures were performed in accordance with the UK Animals (Scientific Procedures) Act 1986 and with local ethical committee approval. Animals were housed in IVC cages in sex-matched groups up to 5 per cage, in an artificial day-night cycle facility, with ad libitum access to food and water. Tumour xenografts or allografts were generated by subcutaneous injection of PANC-1 or Capan-1 cell suspensions in the hind flank of balb/c nu/nu animals. CaNT xenografts were generated by harvesting CaNT tumours from donor animals, and injecting a tumour homogenate subcutaneously in the flank of wild type CBA/Carl mice. Tumours were irradiated (10 Gy, 2 Gy/min) using a 300 kV X-ray device.
Dynamic PET/CT images were acquired following an intravenous bolus administration of [^18F]-olaparib. Biodistribution studies, where selected tissues were harvested, were performed 1 h post injection. Some animals were also administered an excess of cold, unlabelled olaparib for evaluating the specificity of tumour uptake. EF5, a hypoxia-selective marker, was injected 2 h before culling of the animal. Digital autoradiography was performed on tumour sections. Image analysis was performed using PMOD.
The murine adenocarcinoma NT (CaNT) was implanted subcutaneously onto the right thigh of 6-7 week-old female CBA/Carl mice. Fifty μL of a crude cell suspension, prepared by mechanical dissociation of an excised tumor from a donor animal, was injected. Tumors were selected for imaging when the geometric mean diameter reached 6-8 mm (volumes calculated as above), approximately 3 weeks after implantation (Kersemans, V., et al. Hypoxia imaging using PET and SPECT: the effects of anesthetic and carrier gas on [Cu]-ATSM, [Tc]-HL91 and [F]-FMISO tumor hypoxia accumulation. PloS one 6, e25911, 2011).
Two hours prior to PET/CT imaging, animals were exposed to X-irradiation of the tumour (10 Gy or sham) (see schedule in FIG. 13). Radiation was delivered using a Gulmay 320 kV X-irradiator; 2.0 Gy/min. Anaesthesia was maintained at 2.5% isoflurane throughout the duration of the irradiation, and animals were allowed to recover. To study the relationship of PARP1 expression, ^18F-olaparib uptake and hypoxia, animals were administered 0.6 μg in 200 μL (0.9% saline) intraperitoneally, one hour prior to PET/CT imaging. Naïve CBA/Carl mice, not bearing tumours, were not irradiated, nor was EF5 administered.
Dynamic PET/CT images were acquired using a VECTor ^4CT integrated PET/CT system. Mice were anaesthetised by 4% isoflurane gas (0.5 L/min O2) and placed on a custom-built imaging cradle in a prone position. Animals mice were intravenously injected with [^18F]-olaparib or (3-5 MBq, 8-11 GBq/μmol, through a tail vein catheter, and dynamic imaging was performed over 45-60 min after radiolabelled compound administration. PET acquisition (150 s per frame, using list mode acquisition) using an ultra-high resolution rat/mouse 1.8 mm collimator, followed by a cone-beam CT scan (55 kV, 0.19 mA) for anatomical reference and attenuation correction. Anaesthesia was maintained at 2.5% isoflurane throughout the duration of the image acquisition. PET images were reconstructed using U-SPECT-Rec3.22 software (MILabs, Utrecht, The Netherlands), applying a pixel-based algorithm with 8 subsets, 6 iterations and 0.8 mm voxel size for ^18F (energy window settings 477.9-584.1 keV).
After PET/CT image acquisition, animals were euthanized by cervical dislocation and selected organs, tissues and blood were removed. The amount of radioactivity in each organ was measured using a 2480 WIZARD^2 gamma counter (PerkinElmer). Counts per minute were converted into MBq using a calibration curve generated from known standards. Values were decay-corrected to the time of injection, and the percentage of the injected dose per gram (% ID/g) of each tissue was calculated.

[2] = system: U87MG and U251MG xenografts; assay: 18F-olaparib biodistribution in U87MG and U251MG tumour xenograft mouse models; assay type: in vivo, Balb/c nude mice; settings: both U87MG and U251MG tumours, 60-120 min p.i.
Description: U87MG and U251MG xenografts were generated in Balb/c nude mice. The xenograft models were administered various doses (0.5, 1.0, 4.0, and 8.0 μg) of ^18F-olaparib by tail vein injection. At 60-120 min post-injection, mice were sacrificed and organs were collected for biodistribution; see FIGS. 27(a) and (b), and FIG. 28(a). […] We predicted that the uptake for the U251MG xenografts would be greater, but in vivo there is no significant difference between the % ID/g for the U251MG or U87MG xenograft tumours.
A 20-fold excess of cold olaparib was injected via tail vein 60 m prior to 1 μg of ^18F-olaparib via tail vein. The mice were sacrificed at 60-120 min post-injection and organs were harvested.

[3] = + IR (10 Gy), individual animals
[4] = + block (excess cold olaparib), individual animal
[5] = tracer alone, individual animals

- clearance pattern ([1]; dynamic PET): hepatobilliary
- weighted blood half-life [1]: 19.3 min
- blood clearance fast half-life ([1]; biphasic fit, fast phase (44%)): 2.8 min
- blood clearance slow half-life ([1]; biphasic fit, slow phase (56%)): 32.3 min
- Ex vivo biodistribution Blood (CaNT allograft; [3]): 9.79 % ID/g and 3.12 % ID/g
- Ex vivo biodistribution Bone (CaNT allograft; [3]): 15.7 % ID/g and 11.5 % ID/g
- Ex vivo biodistribution Brain (CaNT allograft; [3]): 0.20 % ID/g and 0.25 % ID/g
- Ex vivo biodistribution Caecum (CaNT allograft; [3]): 42.9 % ID/g and 44.6 % ID/g
- Ex vivo biodistribution Fat (CaNT allograft; [3]): 2.52 % ID/g and 2.34 % ID/g
- Ex vivo biodistribution Gallbladder (CaNT allograft; [3]): 155 % ID/g and 57.3 % ID/g
- Ex vivo biodistribution Heart (CaNT allograft; [3]): 8.74 % ID/g and 7.03 % ID/g
- Ex vivo biodistribution Kidney (CaNT allograft; [3]): 24.5 % ID/g and 19.0 % ID/g
- Ex vivo biodistribution Large intestine (CaNT allograft; [3]): 60.1 % ID/g and 47.0 % ID/g
- Ex vivo biodistribution Liver (CaNT allograft; [3]): 93.2 % ID/g and 100 % ID/g
- Ex vivo biodistribution Lung (CaNT allograft; [3]): 10.9 % ID/g and 9.61 % ID/g
- Ex vivo biodistribution Muscle (CaNT allograft; [3]): 5.45 % ID/g and 5.31 % ID/g
- Ex vivo biodistribution Pancreas (CaNT allograft; [3]): 29.5 % ID/g and 23.6 % ID/g
- Ex vivo biodistribution Skin (CaNT allograft; [3]): 5.02 % ID/g and 5.12 % ID/g
- Ex vivo biodistribution Spleen (CaNT allograft; [3]): 69.0 % ID/g and 58.3 % ID/g
- Ex vivo biodistribution Stomach (CaNT allograft; [3]): 9.40 % ID/g and 4.20 % ID/g
- Ex vivo biodistribution Tumour (CaNT allograft; [3]): 1.43 % ID/g and 1.92 % ID/g
- Ex vivo biodistribution Blood (CaNT allograft; [4]): 4.00 % ID/g
- Ex vivo biodistribution Bone (CaNT allograft; [4]): 5.18 % ID/g
- Ex vivo biodistribution Brain (CaNT allograft; [4]): 0.22 % ID/g
- Ex vivo biodistribution Caecum (CaNT allograft; [4]): 101 % ID/g
- Ex vivo biodistribution Fat (CaNT allograft; [4]): 1.57 % ID/g
- Ex vivo biodistribution Gallbladder (CaNT allograft; [4]): 194 % ID/g
- Ex vivo biodistribution Heart (CaNT allograft; [4]): 2.51 % ID/g
- Ex vivo biodistribution Kidney (CaNT allograft; [4]): 8.45 % ID/g
- Ex vivo biodistribution Large intestine (CaNT allograft; [4]): 61.2 % ID/g
- Ex vivo biodistribution Liver (CaNT allograft; [4]): 74.3 % ID/g
- Ex vivo biodistribution Lung (CaNT allograft; [4]): 2.29 % ID/g
- Ex vivo biodistribution Muscle (CaNT allograft; [4]): 2.65 % ID/g
- Ex vivo biodistribution Pancreas (CaNT allograft; [4]): 3.41 % ID/g
- Ex vivo biodistribution Skin (CaNT allograft; [4]): 1.16 % ID/g
- Ex vivo biodistribution Spleen (CaNT allograft; [4]): 2.41 % ID/g
- Ex vivo biodistribution Stomach (CaNT allograft; [4]): 4.09 % ID/g
- Ex vivo biodistribution Tumour (CaNT allograft; [4]): 0.98 % ID/g
- Ex vivo biodistribution Blood (CaNT allograft; [5]): 1.78 % ID/g and 8.00 % ID/g
- Ex vivo biodistribution Bone (CaNT allograft; [5]): 11.7 % ID/g and 10.2 % ID/g
- Ex vivo biodistribution Brain (CaNT allograft; [5]): 0.29 % ID/g and 0.23 % ID/g
- Ex vivo biodistribution Caecum (CaNT allograft; [5]): 32.5 % ID/g and 56.2 % ID/g
- Ex vivo biodistribution Fat (CaNT allograft; [5]): 7.19 % ID/g and 1.12 % ID/g
- Ex vivo biodistribution Gallbladder (CaNT allograft; [5]): 953 % ID/g and 126 % ID/g
- Ex vivo biodistribution Heart (CaNT allograft; [5]): 7.34 % ID/g and 0.00 % ID/g
- Ex vivo biodistribution Kidney (CaNT allograft; [5]): 23.9 % ID/g and 21.0 % ID/g
- Ex vivo biodistribution Large intestine (CaNT allograft; [5]): 24.0 % ID/g and 47.8 % ID/g
- Ex vivo biodistribution Liver (CaNT allograft; [5]): 84.6 % ID/g and 110 % ID/g
- Ex vivo biodistribution Lung (CaNT allograft; [5]): 12.5 % ID/g and 9.73 % ID/g
- Ex vivo biodistribution Muscle (CaNT allograft; [5]): 5.84 % ID/g and 4.63 % ID/g
- Ex vivo biodistribution Pancreas (CaNT allograft; [5]): 15.1 % ID/g and 20.8 % ID/g
- Ex vivo biodistribution Skin (CaNT allograft; [5]): 3.82 % ID/g and 4.65 % ID/g
- Ex vivo biodistribution Spleen (CaNT allograft; [5]): 43.3 % ID/g and 47.0 % ID/g
- Ex vivo biodistribution Stomach (CaNT allograft; [5]): 6.17 % ID/g and 12.8 % ID/g
- Ex vivo biodistribution Tumour (CaNT allograft; [5]): 1.48 % ID/g and 2.83 % ID/g
- tumour uptake (group mean) (CaNT allograft; excess cold olaparib): 0.80±0.19 % ID/g
- tumour uptake (group mean) (CaNT allograft; tracer alone): 1.71±0.59 % ID/g
- decrease of tumour % ID/g at 8.0 μg compared to 1.0 μg tracer [2]: > 50%
SMILES: O=C(c1cc(Cc2n[nH]c(=O)c3ccccc23)ccc1[18F])N1CCN(C(=O)C2CC2)CC1 [[^18F]olaparib]

From US20250340519A1, “RADIOLABELLED COMPOUND” (OXFORD UNIVERSITY INNOVATION LIMITED, priority 2018, published 2025)
